Data: article PMC7933434, “Entropy-driven binding of gut bacterial β-glucuronidase inhibitors ameliorates irinotecan-induced toxicity” (Communications Biology, 2021)
“And” between values parts separate entries of the source, which are not always exact repeats. Identical values can stand only once.

Tests used:
[1] = target: T1, HsGUS (human GUS) (Homo sapiens, UniProt P08236); assay: GUS inhibition assay, hydrolysis of 4-methylumbelliferyl-β-glucuronide, HsGUS; assay type: biochemical; set-up: GUS activity (hydrolysis rate of MUG): unit not given here
T1 construct: HsGUS was prepared as described[37]; made in house
T1 sequence (P08236 23-651): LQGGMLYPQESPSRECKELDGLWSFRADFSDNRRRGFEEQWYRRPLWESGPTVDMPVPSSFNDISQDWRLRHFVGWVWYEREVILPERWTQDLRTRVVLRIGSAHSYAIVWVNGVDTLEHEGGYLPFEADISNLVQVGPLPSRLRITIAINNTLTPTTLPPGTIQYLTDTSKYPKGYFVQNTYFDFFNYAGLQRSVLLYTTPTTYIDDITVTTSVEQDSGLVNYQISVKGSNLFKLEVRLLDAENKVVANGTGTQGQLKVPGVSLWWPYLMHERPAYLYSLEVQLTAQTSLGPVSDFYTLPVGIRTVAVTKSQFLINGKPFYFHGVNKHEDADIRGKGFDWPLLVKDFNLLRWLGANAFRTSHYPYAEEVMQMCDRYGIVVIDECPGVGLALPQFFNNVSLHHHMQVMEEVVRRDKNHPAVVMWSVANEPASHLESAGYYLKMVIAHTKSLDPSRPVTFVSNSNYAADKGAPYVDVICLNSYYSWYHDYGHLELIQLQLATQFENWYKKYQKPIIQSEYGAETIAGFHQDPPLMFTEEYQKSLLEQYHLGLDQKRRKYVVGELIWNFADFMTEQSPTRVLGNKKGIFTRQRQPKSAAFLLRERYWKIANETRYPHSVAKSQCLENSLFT

[2] = target: LgGUS (Lactobacillus gasseri GUS) (Lactobacillus gasseri, UniProt Q9AHJ8); assay: GUS inhibition assay, hydrolysis of 4-methylumbelliferyl-β-glucuronide, LgGUS; assay type: biochemical; set-up: GUS activity (hydrolysis rate of MUG) / 1/v: unit not given here
[3] = test system: GM637 non-cancerous human fibroblasts; assay: In vitro cytotoxicity, [3H]thymidine incorporation, GM637; assay type: cell-based; conditions: GM637 cells; 0.001–100 μM for 24 h
[4] = test system: BALB/c mice; assay: Colon histology (hematoxylin and eosin) after oral gavage; assay type: in vivo, mouse; conditions: female BALB/c mice; oral gavage for 5 days; 3 at 37.5 mg per kg body weight, ASN03273363 at 65 mg
[5] = [Inhibitor 3] = 0.5 μM, [MUG] 0.0375 mM
[6] = [Inhibitor 3] = 0.5 μM, [MUG] 0.075 mM
[7] = [Inhibitor 3] = 0.5 μM, [MUG] 0.15 mM
[8] = [Inhibitor 3] = 0.5 μM, [MUG] 0.3 mM
[9] = [Inhibitor 3] = 1 μM, [MUG] 0.0375 mM
[10] = [Inhibitor 3] = 1 μM, [MUG] 0.075 mM
[11] = [Inhibitor 3] = 1 μM, [MUG] 0.15 mM
[12] = [Inhibitor 3] = 1 μM, [MUG] 0.3 mM
[13] = [Inhibitor 3] = 2 μM, [MUG] 0.0375 mM
[14] = [Inhibitor 3] = 2 μM, [MUG] 0.075 mM
[15] = [Inhibitor 3] = 2 μM, [MUG] 0.15 mM
[16] = [Inhibitor 3] = 2 μM, [MUG] 0.3 mM
[17] = [Inhibitor 3] = 4 μM, [MUG] 0.0375 mM
[18] = [Inhibitor 3] = 4 μM, [MUG] 0.075 mM
[19] = [Inhibitor 3] = 4 μM, [MUG] 0.15 mM
[20] = [Inhibitor 3] = 4 μM, [MUG] 0.3 mM

LgGUS (Lactobacillus gasseri GUS), sequence (Q9AHJ8 1-598): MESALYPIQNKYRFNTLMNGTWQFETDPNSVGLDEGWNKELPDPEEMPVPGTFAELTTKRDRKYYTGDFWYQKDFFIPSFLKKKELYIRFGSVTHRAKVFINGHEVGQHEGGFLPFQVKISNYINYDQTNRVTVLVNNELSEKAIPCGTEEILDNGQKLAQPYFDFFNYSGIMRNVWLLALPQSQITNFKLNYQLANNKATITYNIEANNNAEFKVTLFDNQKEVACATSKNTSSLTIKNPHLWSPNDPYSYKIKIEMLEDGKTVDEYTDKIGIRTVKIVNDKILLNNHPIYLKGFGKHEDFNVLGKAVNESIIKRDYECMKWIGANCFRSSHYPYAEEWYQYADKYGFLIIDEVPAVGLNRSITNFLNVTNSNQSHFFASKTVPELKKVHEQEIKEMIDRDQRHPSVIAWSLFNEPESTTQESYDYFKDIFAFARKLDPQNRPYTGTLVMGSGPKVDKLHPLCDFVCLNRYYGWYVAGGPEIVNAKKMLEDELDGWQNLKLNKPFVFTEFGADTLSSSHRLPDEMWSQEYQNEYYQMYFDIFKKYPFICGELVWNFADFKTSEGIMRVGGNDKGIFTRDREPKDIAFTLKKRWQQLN

## CCCCCC[C@@H]1NC[C@@H](O)[C@H](O)[C@H]1C(=O)O [Inhibitor 3, C6-hexyl UIFG]
[1]; HsGUS, 50 mM sodium acetate pH 4.5, 37 °C
  Ki: 5.3 ± 0.9 µM
[1]; [Inhibitor 3] =0.15625 μM, [MUG] 0.1 mM
  GUS activity (hydrolysis rate of MUG): 771.278 and 806.238
[1]; [Inhibitor 3] =0.15625 μM, [MUG] 0.2 mM
  GUS activity (hydrolysis rate of MUG): 1372.81 and 1460.04
[1]; [Inhibitor 3] =0.15625 μM, [MUG] 0.4 mM
  GUS activity (hydrolysis rate of MUG): 2346.7 and 2406.16
[1]; [Inhibitor 3] =0.15625 μM, [MUG] 0.6 mM
  GUS activity (hydrolysis rate of MUG): 2899.99 and 3077.74
[1]; [Inhibitor 3] =0.15625 μM, [MUG] 0.8 mM
  GUS activity (hydrolysis rate of MUG): 3398.11 and 3693.06
[1]; [Inhibitor 3] =0.15625 μM, [MUG] 1.2 mM
  GUS activity (hydrolysis rate of MUG): 4234.64 and 3962.7
[1]; [Inhibitor 3] =0.15625 μM, [MUG] 1.6 mM
  GUS activity (hydrolysis rate of MUG): 4964.29 and 4569.67
[1]; [Inhibitor 3] =0.15625 μM, [MUG] 2 mM
  GUS activity (hydrolysis rate of MUG): 5606.01 and 4919.37
[1]; [Inhibitor 3] =0.3125 μM, [MUG] 0.1 mM
  GUS activity (hydrolysis rate of MUG): 857.043 and 831.938
[1]; [Inhibitor 3] =0.3125 μM, [MUG] 0.2 mM
  GUS activity (hydrolysis rate of MUG): 1433.02 and 1411.42
[1]; [Inhibitor 3] =0.3125 μM, [MUG] 0.4 mM
  GUS activity (hydrolysis rate of MUG): 2271.61 and 2263.8
[1]; [Inhibitor 3] =0.3125 μM, [MUG] 0.6 mM
  GUS activity (hydrolysis rate of MUG): 2953.53 and 2923.55
[1]; [Inhibitor 3] =0.3125 μM, [MUG] 0.8 mM
  GUS activity (hydrolysis rate of MUG): 3510.33 and 3469.47
[1]; [Inhibitor 3] =0.3125 μM, [MUG] 1.2 mM
  GUS activity (hydrolysis rate of MUG): 4268.51 and 4308.7
[1]; [Inhibitor 3] =0.3125 μM, [MUG] 1.6 mM
  GUS activity (hydrolysis rate of MUG): 4927.41 and 4670.47
[1]; [Inhibitor 3] =0.3125 μM, [MUG] 2 mM
  GUS activity (hydrolysis rate of MUG): 5186.78 and 5296.26
[1]; [Inhibitor 3] =0.625 μM, [MUG] 0.1 mM
  GUS activity (hydrolysis rate of MUG): 778.258 and 858.783
[1]; [Inhibitor 3] =0.625 μM, [MUG] 0.2 mM
  GUS activity (hydrolysis rate of MUG): 1379.09 and 1422.22
[1]; [Inhibitor 3] =0.625 μM, [MUG] 0.4 mM
  GUS activity (hydrolysis rate of MUG): 2137.64 and 2310.12
[1]; [Inhibitor 3] =0.625 μM, [MUG] 0.6 mM
  GUS activity (hydrolysis rate of MUG): 2842.46 and 2976.65
[1]; [Inhibitor 3] =0.625 μM, [MUG] 0.8 mM
  GUS activity (hydrolysis rate of MUG): 3348.75 and 3351.68
[1]; [Inhibitor 3] =0.625 μM, [MUG] 1.2 mM
  GUS activity (hydrolysis rate of MUG): 4293.66 and 3890.63
[1]; [Inhibitor 3] =0.625 μM, [MUG] 1.6 mM
  GUS activity (hydrolysis rate of MUG): 4573.95 and 4600.88
[1]; [Inhibitor 3] =0.625 μM, [MUG] 2 mM
  GUS activity (hydrolysis rate of MUG): 5372.6 and 4990.92
[1]; [Inhibitor 3] =1.25 μM, [MUG] 0.1 mM
  GUS activity (hydrolysis rate of MUG): 717.04 and 716.519
[1]; [Inhibitor 3] =1.25 μM, [MUG] 0.2 mM
  GUS activity (hydrolysis rate of MUG): 1240.56 and 1222.88
[1]; [Inhibitor 3] =1.25 μM, [MUG] 0.4 mM
  GUS activity (hydrolysis rate of MUG): 2023.29 and 2076.53
[1]; [Inhibitor 3] =1.25 μM, [MUG] 0.6 mM
  GUS activity (hydrolysis rate of MUG): 2757.57 and 2739.69
[1]; [Inhibitor 3] =1.25 μM, [MUG] 0.8 mM
  GUS activity (hydrolysis rate of MUG): 3062.28 and 3123.61
[1]; [Inhibitor 3] =1.25 μM, [MUG] 1.2 mM
  GUS activity (hydrolysis rate of MUG): 3822.55 and 3852.43
[1]; [Inhibitor 3] =1.25 μM, [MUG] 1.6 mM
  GUS activity (hydrolysis rate of MUG): 4324.26 and 4371.34
[1]; [Inhibitor 3] =1.25 μM, [MUG] 2 mM
  GUS activity (hydrolysis rate of MUG): 5149.01 and 5020.2
[1]; [Inhibitor 3] =2.5 μM, [MUG] 0.1 mM
  GUS activity (hydrolysis rate of MUG): 605.275 and 587.992
[1]; [Inhibitor 3] =2.5 μM, [MUG] 0.2 mM
  GUS activity (hydrolysis rate of MUG): 1017.03 and 1026.81
[1]; [Inhibitor 3] =2.5 μM, [MUG] 0.4 mM
  GUS activity (hydrolysis rate of MUG): 1798.51 and 1698.98
[1]; [Inhibitor 3] =2.5 μM, [MUG] 0.6 mM
  GUS activity (hydrolysis rate of MUG): 2384.66 and 2417.17
[1]; [Inhibitor 3] =2.5 μM, [MUG] 0.8 mM
  GUS activity (hydrolysis rate of MUG): 2879.78 and 2802.26
[1]; [Inhibitor 3] =2.5 μM, [MUG] 1.2 mM
  GUS activity (hydrolysis rate of MUG): 3545.79 and 3649.82
[1]; [Inhibitor 3] =2.5 μM, [MUG] 1.6 mM
  GUS activity (hydrolysis rate of MUG): 4144.07 and 4075.98
[1]; [Inhibitor 3] =2.5 μM, [MUG] 2 mM
  GUS activity (hydrolysis rate of MUG): 4744.38 and 4849.33
[1]; [Inhibitor 3] =3.75 μM, [MUG] 0.1 mM
  GUS activity (hydrolysis rate of MUG): 572.514 and 563.082
[1]; [Inhibitor 3] =3.75 μM, [MUG] 0.2 mM
  GUS activity (hydrolysis rate of MUG): 956.564 and 935.374
[1]; [Inhibitor 3] =3.75 μM, [MUG] 0.4 mM
  GUS activity (hydrolysis rate of MUG): 1708.56 and 1611.49
[1]; [Inhibitor 3] =3.75 μM, [MUG] 0.6 mM
  GUS activity (hydrolysis rate of MUG): 2310.6 and 2247.59
[1]; [Inhibitor 3] =3.75 μM, [MUG] 0.8 mM
  GUS activity (hydrolysis rate of MUG): 2878.65 and 2643.42
[1]; [Inhibitor 3] =3.75 μM, [MUG] 1.2 mM
  GUS activity (hydrolysis rate of MUG): 3484.96 and 3524
[1]; [Inhibitor 3] =3.75 μM, [MUG] 1.6 mM
  GUS activity (hydrolysis rate of MUG): 3945.8 and 4134.14
[1]; [Inhibitor 3] =3.75 μM, [MUG] 2 mM
  GUS activity (hydrolysis rate of MUG): 4453.48 and 4566.78
[2]; LgGUS, 50 mM sodium acetate pH 4.5, 37 °C
  Ki: 0.86 ± 0.18 µM
[2]; [5]
  1/v: 0.401 and 0.3673 and 0.39
  GUS activity (hydrolysis rate of MUG): 3104.19 and 3385.21 and 3190.6
[2]; [6]
  1/v: 0.256 and 0.2525 and 0.2536
  GUS activity (hydrolysis rate of MUG): 4839.61 and 4906.13 and 4884.95
[2]; [7]
  1/v: 0.1953 and 0.1691 and 0.1949
  GUS activity (hydrolysis rate of MUG): 6330.06 and 7304.48 and 6344.76
[2]; [8]
  1/v: 0.1452 and 0.1349 and 0.1522
  GUS activity (hydrolysis rate of MUG): 8498.3 and 9149.25 and 8113.44
[2]; [9]
  1/v: 0.5803 and 0.4953 and 0.5757
  GUS activity (hydrolysis rate of MUG): 2157.49 and 2520.77 and 2174.43
[2]; [10]
  1/v: 0.3424 and 0.3184 and 0.351
  GUS activity (hydrolysis rate of MUG): 3628.61 and 3898.42 and 3540.08
[2]; [11]
  1/v: 0.2292 and 0.221 and 0.234
  GUS activity (hydrolysis rate of MUG): 5401.09 and 5599.95 and 5290.95
[2]; [12]
  1/v: 0.17 and 0.1709 and 0.1804
  GUS activity (hydrolysis rate of MUG): 7266.77 and 7229.36 and 6851.15
[2]; [13]
  1/v: 0.7678 and 0.7232 and 0.846
  GUS activity (hydrolysis rate of MUG): 1640.4 and 1739.08 and 1492.59
[2]; [14]
  1/v: 0.3881 and 0.4343 and 0.4681
  GUS activity (hydrolysis rate of MUG): 3205.84 and 2869.39 and 2664.86
[2]; [15]
  1/v: 0.2765 and 0.2621 and 0.3029
  GUS activity (hydrolysis rate of MUG): 4483.64 and 4728.12 and 4096.06
[2]; [16]
  1/v: 0.1941 and 0.1876 and 0.2109
  GUS activity (hydrolysis rate of MUG): 6369.22 and 6587.98 and 5864.23
[2]; [17]
  1/v: 1.38 and 1.418 and 1.362
  GUS activity (hydrolysis rate of MUG): 930.888 and 906.847 and 942.511
[2]; [18]
  1/v: 0.7054 and 0.7651 and 0.7316
  GUS activity (hydrolysis rate of MUG): 1782.13 and 1646.05 and 1719.56
[2]; [19]
  1/v: 0.4164 and 0.4204 and 0.422
  GUS activity (hydrolysis rate of MUG): 2991.08 and 2963 and 2951.69
[2]; [20]
  1/v: 0.2731 and 0.2793 (2×)
  GUS activity (hydrolysis rate of MUG): 4539.61 and 4438.44 and 4439.48
[3]
  cytotoxicity: No cytotoxicity was evident
[4]
  health of the epithelial layer and intestinal glandular structure (hematoxylin and eosin staining): neither compound affected the health of the epithelial layer or the intestinal glandular structure
